Assay results taken from ChEMBL document CHEMBL3727356, “Therapeutic compounds and compositions” (2014).

Columns and labels:
[1] = biological target: T1, Pyruvate kinase PKLR (Homo sapiens, UniProt P30613); assay: Activation of wild type PKR (unknown origin) incubated for 60 mins in presence of ADP, PEP and NADH by Spectraax microplate reader based assay
[2] = biological target: Pyruvate kinase PKLR (Homo sapiens, UniProt P30613, R532W); assay: Activation of PKR R532W mutant (unknown origin) incubated for 60 mins in presence of ADP, PEP and NADH by Spectraax microplate reader based assay
[3] = biological target: Pyruvate kinase PKLR (Homo sapiens, UniProt P30613, R510Q); assay: Activation of PKR R510Q mutant (unknown origin) incubated for 60 mins in presence of ADP, PEP and NADH by Spectraax microplate reader based assay
[4] = biological target: T1, Pyruvate kinase PKLR; assay: Activation of wild type PKR (unknown origin) by cell based assay

T1 sequence (P30613 whole entry): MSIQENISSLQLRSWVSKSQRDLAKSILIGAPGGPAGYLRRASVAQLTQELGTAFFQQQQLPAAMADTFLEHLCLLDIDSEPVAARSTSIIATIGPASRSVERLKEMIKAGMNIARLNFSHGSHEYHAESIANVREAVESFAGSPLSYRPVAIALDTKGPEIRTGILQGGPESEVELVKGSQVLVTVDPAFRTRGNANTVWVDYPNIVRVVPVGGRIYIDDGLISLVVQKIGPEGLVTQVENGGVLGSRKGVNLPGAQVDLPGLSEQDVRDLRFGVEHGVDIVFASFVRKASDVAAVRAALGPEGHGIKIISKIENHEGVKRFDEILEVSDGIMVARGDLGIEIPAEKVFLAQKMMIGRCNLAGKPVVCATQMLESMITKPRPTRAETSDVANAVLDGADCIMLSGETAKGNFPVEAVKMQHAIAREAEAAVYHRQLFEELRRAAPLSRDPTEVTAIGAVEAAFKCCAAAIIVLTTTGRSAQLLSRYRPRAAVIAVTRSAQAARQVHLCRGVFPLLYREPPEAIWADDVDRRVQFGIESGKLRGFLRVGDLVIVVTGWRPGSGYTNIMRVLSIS
Pyruvate kinase PKLR (Homo sapiens, UniProt P30613, R532W), sequence (P30613 whole entry R532W): as the sequence (P30613 whole entry) above, with R532W counted along it
Pyruvate kinase PKLR (Homo sapiens, UniProt P30613, R510Q), sequence (P30613 whole entry R510Q): as the sequence (P30613 whole entry) above, with R510Q counted along it

Row | SMILES | AC50 [1] | AC50 [2] | AC50 [3] | AC50 [4]
1 | Cc1cc(C(=O)N2CCC(O)(c3ccccc3Cl)CC2)ccc1NS(=O)(=O)c1cccc2nccnc12 | < 100 nM | < 100 nM | < 100 nM | < 100 nM
2 | O=C(c1ccc(NS(=O)(=O)c2cccc3cccnc23)c(F)c1)N1CCC(O)(c2ccccc2Cl)CC1 | < 100 nM | < 100 nM | < 100 nM | < 100 nM
3 | CNc1nc2c(S(=O)(=O)Nc3ccc(C(=O)N4CCC(O)(CC(C)C)CC4)cc3)cc(Cl)cc2s1 | < 100 nM | < 100 nM | < 100 nM | < 100 nM
4 | O=C(c1ccc(NS(=O)(=O)c2cccc3cccnc23)cc1)N1CCC(O)(Cc2ccccc2C(F)(F)F)CC1 | < 100 nM | < 100 nM | < 100 nM | < 100 nM
5 | O=C(c1ccc(NS(=O)(=O)c2cccc3cccnc23)cc1)N1CCC(O)(Cc2ccccc2F)CC1 | < 100 nM | < 100 nM | < 100 nM | < 100 nM
6 | CC(CC1(O)CCN(C(=O)c2ccc(NS(=O)(=O)c3cccc4sc(N)nc34)cc2)CC1)C(F)(F)F (centres undefined) | < 100 nM | < 100 nM | < 100 nM | < 100 nM
7 | Cc1nscc1CC1(O)CCN(C(=O)c2ccc(NS(=O)(=O)c3cccc4nccnc34)cc2)CC1 | < 100 nM | < 100 nM | < 100 nM | < 100 nM
8 | Nc1cnc2c(S(=O)(=O)Nc3ccc(C(=O)N4CCC(O)(c5cccc(F)c5F)CC4)cc3)cccc2n1 | < 100 nM | < 100 nM | < 100 nM | < 100 nM
9 | COc1ccccc1CC1(O)CCN(C(=O)c2ccc(NS(=O)(=O)c3cccc4cccnc34)cc2)CC1 | < 100 nM | < 100 nM | < 100 nM | < 100 nM
10 | O=C(c1ccc(NS(=O)(=O)c2cccc3cccnc23)cc1F)N1CCC(O)(Cc2ccccc2)CC1 | < 100 nM | < 100 nM | < 100 nM | < 100 nM
11 | Nc1nc2c(S(=O)(=O)Nc3ccc(C(=O)N4CCC(O)(c5cccc(F)c5F)CC4)cc3)cccc2s1 | < 100 nM | < 100 nM | < 100 nM | < 100 nM
12 | Cc1cc(C(=O)N2CCC(O)(c3cccc(Cl)c3)CC2)ccc1NS(=O)(=O)c1cccc2cccnc12 | < 100 nM | < 100 nM | ≤ 1000 nM | < 100 nM
13 | Cc1cc(C(=O)N2CCC(O)(Cc3ccccc3)CC2)ccc1NS(=O)(=O)c1cccc2cccnc12 | < 100 nM | < 100 nM | < 100 nM | < 100 nM
14 | CCc1ccccc1C1(O)CCN(C(=O)c2ccc(NS(=O)(=O)c3cccc4cccnc34)cc2)CC1 | < 100 nM | < 100 nM | < 100 nM | < 100 nM
15 | O=C(c1ccc(NS(=O)(=O)c2ccc(F)c3nccnc23)cc1)N1CCC(O)(c2cccc(F)c2F)CC1 | < 100 nM | < 100 nM | ≤ 1000 nM | ≥ 1010 nM
16 | O=C(c1ccc(NS(=O)(=O)c2cccc3cccnc23)cc1)N1CCC(O)(CC2CCC2)CC1 | < 100 nM | < 100 nM | < 100 nM | < 100 nM
17 | O=C(c1ccc(NS(=O)(=O)c2cccc3c2OCCC3)cc1)N1CCC(O)(c2ccccc2Cl)CC1 | < 100 nM | < 100 nM | < 100 nM | < 100 nM
18 | CC(C)CC1(O)CCN(C(=O)c2ccc(NS(=O)(=O)c3cccc4ncc(N)nc34)cc2)CC1 | < 100 nM | < 100 nM | < 100 nM | < 100 nM
19 | CC(C)CC1(O)CCN(C(=O)c2ccc(NS(=O)(=O)c3cccc4nccnc34)cc2)CC1 | < 100 nM | < 100 nM | < 100 nM | < 100 nM
20 | O=C(c1ccc(NS(=O)(=O)c2cccc3cccnc23)cc1)N1CCC(O)(Cc2ccccc2)CC1 | < 100 nM | < 100 nM | < 100 nM | < 100 nM
21 | Cc1nc(F)ccc1C1(O)CCN(C(=O)c2ccc(NS(=O)(=O)c3cccc4cccnc34)cc2)CC1 | < 100 nM | < 100 nM | < 100 nM | < 100 nM
22 | CC1(CC2(O)CCN(C(=O)c3ccc(NS(=O)(=O)c4cccc5cccnc45)cc3)CC2)CC1 | < 100 nM | < 100 nM | < 100 nM | < 100 nM
23 | Cc1cc(F)ccc1C1(O)CCN(C(=O)c2ccc(NS(=O)(=O)c3cccc4cccnc34)cc2)CC1 | < 100 nM | < 100 nM | < 100 nM | < 100 nM
24 | O=C(c1ccc(NS(=O)(=O)c2cccc3cccnc23)cc1)N1CCC(O)(CC2CC2)CC1 | < 100 nM | < 100 nM | < 100 nM | < 100 nM
25 | O=C(c1ccc(NS(=O)(=O)c2cccc3cccnc23)cc1)N1CCC(O)(Cc2c(F)cccc2F)CC1 | < 100 nM | < 100 nM | < 100 nM | < 100 nM
26 | Nc1nc2c(S(=O)(=O)Nc3ccc(C(=O)N4CCC(O)(c5ccccc5Cl)CC4)cc3)cccc2s1 | < 100 nM | < 100 nM | < 100 nM | < 100 nM

Row | SMILES | AC50 [1] | AC50 [2] | AC50 [3] | AC50 [4]
27 | CC(C)CCC1(O)CCN(C(=O)c2ccc(NS(=O)(=O)c3cccc4scnc34)cc2)CC1 | < 100 nM | < 100 nM | < 100 nM | < 100 nM
28 | O=C(c1ccc(NS(=O)(=O)c2cccc3cccnc23)cc1)N1CCC(O)(Cc2cccc(F)c2)CC1 | < 100 nM | < 100 nM | < 100 nM | < 100 nM
29 | O=C(c1ccc(NS(=O)(=O)c2cccc3cccnc23)cc1)N1CCC(O)(c2ccccc2C(F)F)CC1 | < 100 nM | < 100 nM | < 100 nM | < 100 nM
30 | CC(C)CC1(O)CCN(C(=O)c2ccc(NS(=O)(=O)c3cccc4sc(N)nc34)cc2)CC1 | < 100 nM | < 100 nM | < 100 nM | < 100 nM
31 | CC(CC1(O)CCN(C(=O)c2ccc(NS(=O)(=O)c3cccc4scnc34)cc2)CC1)C(F)(F)F (centres undefined) | < 100 nM | < 100 nM | < 100 nM | < 100 nM
32 | O=C(c1ccc(NS(=O)(=O)c2cccc3cccnc23)cc1)N1CCC(O)(c2ccc(F)c(Br)n2)CC1 | < 100 nM | < 100 nM | < 100 nM | < 100 nM
33 | CC(C)CC1(CO)CCN(C(=O)c2ccc(NS(=O)(=O)c3cccc4cccnc34)cc2)CC1 | < 100 nM | < 100 nM | < 100 nM | < 100 nM
34 | O=C(c1ccc(NS(=O)(=O)c2cccc3cccnc23)cc1OC(F)F)N1CCC(O)(c2ccccc2Cl)CC1 | < 100 nM | < 100 nM | < 100 nM | < 100 nM
35 | Cc1ccccc1CC1(O)CCN(C(=O)c2ccc(NS(=O)(=O)c3cccc4cccnc34)cc2)CC1 | < 100 nM | < 100 nM | < 100 nM | < 100 nM
36 | O=C(c1ccc(NS(=O)(=O)c2cccc3cccnc23)cc1)N1CCC(O)(c2ccccc2Cl)CC1 | < 100 nM | < 100 nM | < 100 nM | < 100 nM
37 | Cc1cc(C(=O)N2CCC(O)(c3ccccc3Cl)CC2)ccc1NS(=O)(=O)c1cccc2cccnc12 | < 100 nM | < 100 nM | < 100 nM | < 100 nM
38 | O=C(c1ccc(NS(=O)(=O)c2cccc3cccnc23)cc1)N1CCC(O)(c2ccc(F)cc2Cl)CC1 | < 100 nM | < 100 nM | < 100 nM | < 100 nM
39 | CC(C)CC1(O)CCN(C(=O)c2ccc(NS(=O)(=O)c3cccc4cccnc34)cc2)CC1 | < 100 nM | < 100 nM | < 100 nM | < 100 nM
40 | O=C(c1ccc(NS(=O)(=O)c2cccc3cccnc23)cc1)N1CCC(O)(c2cccc(F)c2Cl)CC1 | < 100 nM | < 100 nM | < 100 nM | < 100 nM
41 | Nc1nc2c(S(=O)(=O)Nc3ccc(C(=O)N4CCC(O)(CCCC(F)(F)F)CC4)cc3)cccc2s1 | < 100 nM | < 100 nM | < 100 nM | < 100 nM
42 | O=C(c1ccc(NS(=O)(=O)c2cccc3cccnc23)cc1)N1CCC(O)(c2cccc(F)c2F)CC1 | < 100 nM | < 100 nM | < 100 nM | < 100 nM
43 | Cc1cnc2cccc(S(=O)(=O)Nc3ccc(C(=O)N4CCC(O)(CC(C)C)CC4)cc3)c2n1 | < 100 nM | < 100 nM | < 100 nM | < 100 nM
44 | CNc1nc2c(S(=O)(=O)Nc3ccc(C(=O)N4CCC(O)(CC(C)C)CC4)cc3)cccc2s1 | < 100 nM | < 100 nM | < 100 nM | < 100 nM
45 | CC(C)CC1(O)CCN(C(=O)c2ccc(NS(=O)(=O)c3cccc4nc(N)cnc34)cc2)CC1 | < 100 nM | < 100 nM | < 100 nM | < 100 nM
46 | CC(C)CC1(C=O)CCN(C(=O)c2ccc(NS(=O)(=O)c3cccc4cccnc34)cc2)CC1 | < 100 nM | < 100 nM | < 100 nM | < 100 nM
47 | CC(C)(C)CC1(O)CCN(C(=O)c2ccc(NS(=O)(=O)c3cccc4scnc34)cc2)CC1 | < 100 nM | < 100 nM | < 100 nM | < 100 nM
48 | CC(C)(C)CC1(O)CCN(C(=O)c2ccc(NS(=O)(=O)c3ccc(F)c4cccnc34)cc2)CC1 | < 100 nM | < 100 nM | < 100 nM | < 100 nM
49 | O=C(c1ccc(NS(=O)(=O)c2cccc3scnc23)cc1)N1CCC(O)(Cc2ccccc2C(F)(F)F)CC1 | < 100 nM | < 100 nM | < 100 nM | < 100 nM
50 | O=C(c1ccc(NS(=O)(=O)c2cccc3cc(F)cnc23)cc1)N1CCC(O)(Cc2ccccc2)CC1 | < 100 nM | < 100 nM | < 100 nM | < 100 nM
51 | C=C(CC1(O)CCN(C(=O)c2ccc(NS(=O)(=O)c3cccc4scnc34)cc2)CC1)C(F)(F)F | < 100 nM | < 100 nM | < 100 nM | < 100 nM
